Assays:
Assay in all cases: Post-emergence efficacy, glasshouse spray test
Type in all cases: in vivo
[1] = tested on: Ipomoea hederacea (IPOHE); settings: Ipomoea hederacea, post-emergence, 312 h; Application Rate 500 g/Ha; evaluated after 13 days; read-out: Control of weed species after post-emergence application, IPOHE (100=total damage to plant; 0=no damage to plant)
Method: (§1) Seeds of a variety of test species were sown in standard soil in pots. After cultivation for 14 days (post-emergence) under controlled conditions in a glasshouse (at 24/16° C. day/night; 14 hours light; 65% humidity), the plants were sprayed with an aqueous spray solution derived from the dissolution of the technical active ingredient formula (I) in a small amount of acetone and a special solvent and emulsifier mixture referred to as IF50 (11.12% Emulsogen EL360 TM+44.44% N-methyl pyrrolidone+44.44% Dowanol DPM glycolether), to create a 50 g/l solution which was then diluted to required concentration using 0.25% or 1% Empicol ESC70 (Sodium lauryl ether sulphate)+1% ammonium sulphate as diluent. The test plants were then grown in a glasshouse under controlled conditions (at 24/16° C., day/night; 14 hours light; 65% humidity) and watered twice daily. After 13 days the test was evaluated (100=total damage to plant; 0=no damage to plant).
(§2) Ipomoea hederacea (IPOHE), Euphorbia heterophylla (EPHHL), Chenopodium album (CHEAL), Amaranthus palmeri (AMAPA), Lolium perenne (LOLPE), Digitaria sanguinalis (DIGSA), Eleusine indica (ELEIN), Echinochloa crus-galli (ECHCG), Setaia fabei (SETFA)

Setaia fabei (SETFA) = settings: Setaria faberi, post-emergence, 312 h; Application Rate 500 g/Ha; evaluated after 13 days; read-out: Control of weed species after post-emergence application, SETFA (100=total damage to plant; 0=no damage to plant)
Method: as §1, §2

Eleusine indica (ELEIN) = settings: Eleusine indica, post-emergence, 312 h; Application Rate 500 g/Ha; evaluated after 13 days; read-out: Control of weed species after post-emergence application, ELEIN (100=total damage to plant; 0=no damage to plant)
Method: as §1, §2

[2] = tested on: Amaranthus palmeri (AMAPA); settings: Amaranthus palmeri, post-emergence, 312 h; Application Rate 500 g/Ha; evaluated after 13 days; read-out: Control of weed species after post-emergence application, AMAPA (100=total damage to plant; 0=no damage to plant)
Method: as §1, §2

[3] = tested on: Digitaria sanguinalis (DIGSA); settings: Digitaria sanguinalis, post-emergence, 312 h; Application Rate 500 g/Ha; evaluated after 13 days; read-out: Control of weed species after post-emergence application, DIGSA (100=total damage to plant; 0=no damage to plant)
Method: as §1, §2

[4] = tested on: Euphorbia heterophylla (EPHHL); settings: Euphorbia heterophylla, post-emergence, 312 h; Application Rate 500 g/Ha; evaluated after 13 days; read-out: Control of weed species after post-emergence application, EPHHL (100=total damage to plant; 0=no damage to plant)
Method: as §1, §2

[5] = tested on: Chenopodium album (CHEAL); settings: Chenopodium album, post-emergence, 312 h; Application Rate 500 g/Ha; evaluated after 13 days; read-out: Control of weed species after post-emergence application, CHEAL (100=total damage to plant; 0=no damage to plant)
Method: as §1, §2

[6] = tested on: Echinochloa crus-galli (ECHCG); settings: Echinochloa crus-galli, post-emergence, 312 h; Application Rate 500 g/Ha; evaluated after 13 days; read-out: Control of weed species after post-emergence application, ECHCG (100=total damage to plant; 0=no damage to plant)
Method: as §1, §2

Lolium perenne (LOLPE) = settings: Lolium perenne, post-emergence, 312 h; Application Rate 500 g/Ha; evaluated after 13 days; read-out: Control of weed species after post-emergence application, LOLPE (100=total damage to plant; 0=no damage to plant)
Method: as §1, §2

Compound	pest or weed control at 500 g/ha [1] [%]	pest or weed control at 500 g/ha (Setaia fabei (SETFA)) [%]	pest or weed control at 500 g/ha (Eleusine indica (ELEIN)) [%]	pest or weed control at 500 g/ha [2] [%]	pest or weed control at 500 g/ha [3] [%]	pest or weed control at 500 g/ha [4] [%]	pest or weed control at 500 g/ha [5] [%]	pest or weed control at 500 g/ha [6] [%]	pest or weed control at 500 g/ha (Lolium perenne (LOLPE)) [%]
O=C(O)CCC[n+]1ccc(-c2nccs2)cn1 [Compound A115]	20	100	100	100	90	100	70	90	60
O=C(O)CC[n+]1ccc(-c2cscn2)cn1 [Compound A100]	20	30	30	0	40	30	0	30	10
O=S(=O)([O-])CC[n+]1ccc(-c2cnsc2)cn1 [Compound A60]	10	50	70	90	50	50	90	40	30
O=S(=O)([O-])CC[n+]1ccc(-c2ncns2)cn1 [Compound A9]	80	60	80	90	70	90	70	60	30
O=S(=O)([O-])CC[n+]1ccc(-c2ccsn2)cn1 [Compound A105]	70	90	90	90	100	100	90	80	70
O=C(O)c1cccc(C[n+]2ccc(-c3ncco3)cn2)c1 [Compound A104]	10	60	20	40	50	30	20	50	10
O=S(=O)([O-])CC[n+]1ccc(-c2nccs2)cn1 [Compound A1, 2-(4-thiazol-2-ylpyridazin-1-ium-1-yl)ethanesulfonate]	50	50	50	100	100	70	70	60	90
CCOC(=O)c1coc(-c2cc[n+](CCC(=O)O)nc2)n1 [Compound A126]	30	70	90	90	90	70	70	60	60
O=S(=O)([O-])CC(O)C[n+]1ccc(-c2ncco2)cn1 (stereo not drawn) [Compound A84]	40	50	70	100	70	90	90	70	50

— patent US20210053957A1, “HERBICIDAL COMPOUNDS” (SYNGENTA PARTICIPATIONS AG, priority 2018, published 2021)
